Laboratory results published in patent US8901129B2, “Methods of facilitating neural cell survival using GDNF family ligand (GFL) mimetics or RET signaling pathway activators” (GeneCode AS, priority 2009, dated 2014).

Legend:
[1] = test system: MG87RET murine fibroblasts; test: Cell viability, CelTiterGlo (FIG. 8); assay type: cell-based; conditions: concentrations above 2 μM, 48 hours
Procedure: The test compounds were transferred into in 384-well culture plate using Echo acoustic dispenser (Labcyte Inc.) in 2.5-125 nl volume. Trypsinized MG87RET murine fibroblasts were seeded at 20 000 cells/ml (500 cells/well) in the presence of each compound dissolved in DMSO at the indicated concentration. After brief mixing on a horizontal shaker, the plates were centrifuged and transferred into the incubator. Two days (48 hours) after addition of cells to compounds, the viability of the cells was evaluated using CelTiterGlo reagent (Promega).

GFRα1/RET = target: T1, GFRα1/RET (Homo sapiens, UniProt P07949+P56159); test: RET phosphorylation by BT compounds, IP and Western blotting (FIG. 6A); assay type: cell-based; conditions: 100 μM, 15 min; MG87 RET fibroblasts transfected with GFRα1
T1 construct: Full-length human GFRα1 cDNA (Sidorova et al., unpublished) subcloned in pcDNA6; expressed in transfected cells; host or cells: MG87RET murine fibroblasts transiently transfected with GFRα1
T1 sequence (P56159 25-429 limits assumed, species assumed): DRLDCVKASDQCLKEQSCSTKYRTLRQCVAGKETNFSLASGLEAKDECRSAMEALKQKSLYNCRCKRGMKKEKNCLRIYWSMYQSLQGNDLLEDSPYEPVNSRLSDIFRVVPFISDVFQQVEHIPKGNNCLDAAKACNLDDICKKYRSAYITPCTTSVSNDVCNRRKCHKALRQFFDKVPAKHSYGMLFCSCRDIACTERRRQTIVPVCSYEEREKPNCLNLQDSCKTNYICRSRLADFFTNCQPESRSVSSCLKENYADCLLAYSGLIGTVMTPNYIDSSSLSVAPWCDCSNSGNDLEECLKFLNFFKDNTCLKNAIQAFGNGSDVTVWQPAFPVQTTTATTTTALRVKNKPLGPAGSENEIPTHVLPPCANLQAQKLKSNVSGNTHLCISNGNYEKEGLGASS
T1 sequence (P07949 29-1114, species assumed): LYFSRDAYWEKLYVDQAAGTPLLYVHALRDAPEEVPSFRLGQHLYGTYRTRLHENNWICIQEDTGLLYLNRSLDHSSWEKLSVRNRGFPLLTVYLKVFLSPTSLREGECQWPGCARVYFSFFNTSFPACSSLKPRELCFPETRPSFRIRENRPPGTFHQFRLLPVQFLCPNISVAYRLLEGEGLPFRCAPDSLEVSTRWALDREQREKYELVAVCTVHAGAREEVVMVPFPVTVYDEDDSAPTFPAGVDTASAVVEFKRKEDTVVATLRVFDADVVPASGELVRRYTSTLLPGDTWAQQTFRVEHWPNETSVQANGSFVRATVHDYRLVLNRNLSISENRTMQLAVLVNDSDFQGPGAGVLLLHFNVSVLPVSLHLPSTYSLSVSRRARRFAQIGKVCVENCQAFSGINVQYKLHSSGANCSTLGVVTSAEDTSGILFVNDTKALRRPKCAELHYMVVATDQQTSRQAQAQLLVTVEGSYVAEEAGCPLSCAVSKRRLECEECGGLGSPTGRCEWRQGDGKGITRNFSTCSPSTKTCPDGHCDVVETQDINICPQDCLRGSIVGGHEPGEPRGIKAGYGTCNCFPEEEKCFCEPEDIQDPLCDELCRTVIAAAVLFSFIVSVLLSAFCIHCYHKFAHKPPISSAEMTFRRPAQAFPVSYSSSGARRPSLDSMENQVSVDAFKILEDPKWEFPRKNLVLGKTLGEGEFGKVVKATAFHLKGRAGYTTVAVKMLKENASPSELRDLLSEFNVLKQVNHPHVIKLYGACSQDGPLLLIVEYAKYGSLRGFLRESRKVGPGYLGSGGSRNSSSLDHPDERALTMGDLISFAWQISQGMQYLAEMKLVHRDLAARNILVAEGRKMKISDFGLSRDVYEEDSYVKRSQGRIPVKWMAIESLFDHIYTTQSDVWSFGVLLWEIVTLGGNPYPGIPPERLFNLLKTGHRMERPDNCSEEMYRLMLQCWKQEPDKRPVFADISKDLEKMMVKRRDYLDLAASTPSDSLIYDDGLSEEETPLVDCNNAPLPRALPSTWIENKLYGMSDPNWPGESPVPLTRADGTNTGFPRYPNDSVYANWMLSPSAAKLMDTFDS
Procedure: (§1) MG87RET cells were plated on 35 mm tissue culture dishes the day before the experiment. Cells were transfected with GFRα1, GFRα3 or with an vector encoding for GFP. On the day of the experiment cells were starved for 4 hours in serum-free DMEM and stimulated with the investigated compounds (structures shown in the description of FIG. 6, above) at 100 μM concentration or with 100 ng/ml of GDNF or ARTN (positive control) for 15 min. Then cells were washed once with ice-cold PBS containing 1 mM Na3VO4 and lysed on ice in 1 ml per well of RIPA-modified buffer (50 mM Tris-HCl, pH 7.4, 150 mM NaCl, 1 mM EDTA, 1% NP-40, 1% TX-100, 10% glycerol, EDTA-free protease inhibitor cocktail (Roche), 1 mM Na3VO4, 2.5 mg/ml of sodium deoxycholate, 1 mM PMSF. Ret was immunoprecipitated by anti-RET C-20 antibodies (Santa-Cruz Biotechnology, Inc.). Precipitated proteins were resolved on 7.5% SDS-PAGE and then transferred onto a nitrocellulose membrane. Membrane was blocked for 15 min at room temperature by 10% nonfat dry milk in TBS-T and probed with anti-phosphotyrosine antibodies (clone 4G10, Upstate Biotechnology) diluted 1:1000 in TBS-T containing 3% nonfat dry milk for 2 hours at room temperature. The membranes were washed 3 times for 5 min in TBS-T and incubated in the 1:3000 solution of secondary anti-mouse antibodies conjugated with HRP (DAKO) diluted in TBS-T containing 3% nonfat dry milk for 45 min at room temperature. Membranes were washed with TBS-T for 5×10 min. Stained bands were visualized with ECL reagent (Pierce) using LAS3000 imaging program. To confirm equal loading of the proteins, membranes were probed with anti-RET C-20 antibodies (1:500, Santa-Cruz Biotechnology, inc.) after stripping. We used secondary anti-goat antibodies conjugated with HRP (1:1500, DAKO) to detect C-20.

GFRα3/RET = target: T2, GFRα3/RET (Homo sapiens, UniProt O60609+P07949); test: RET phosphorylation by BT compounds, IP and Western blotting (FIG. 6B); assay type: cell-based; conditions: 100 μM, 15 min; MG87 RET fibroblasts transfected with GFRα3
T2 construct: Full-length human GFRα3 cDNA (Wang et al., 2006); expressed in transfected cells; host or cells: MG87RET murine fibroblasts transiently transfected with GFRα3
T2 sequence (O60609 32-374 limits assumed): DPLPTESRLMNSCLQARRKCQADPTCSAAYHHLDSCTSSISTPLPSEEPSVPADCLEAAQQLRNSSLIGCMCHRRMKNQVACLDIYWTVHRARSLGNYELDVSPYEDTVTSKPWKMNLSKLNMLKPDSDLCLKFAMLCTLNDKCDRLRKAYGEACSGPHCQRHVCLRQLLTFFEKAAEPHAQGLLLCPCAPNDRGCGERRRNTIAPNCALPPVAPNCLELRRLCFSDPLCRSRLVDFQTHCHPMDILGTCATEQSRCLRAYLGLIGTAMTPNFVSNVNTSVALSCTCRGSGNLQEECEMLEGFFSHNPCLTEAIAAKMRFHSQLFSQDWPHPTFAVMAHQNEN
T2 sequence (P07949 29-1114): as the sequence (P07949 29-1114, species assumed) above
Procedure: as §1

[2] = test system: GFRα1/RET-expressing cells; test: Reporter-gene luciferase activity assay, dose-response (FIG. 5); assay type: cell-based; conditions: 1-50 μM, 24 h
Procedure: (§2) Generation of stable cell lines. MG87RET murine fibroblast were plated on […] dishes and transfected with 4 μg of G4-Luc, Gal4-Elk (Baloh et al., 2000) and GFRα1 expressing plasmid (“αLUC” cells) or empty vector (“NOα” cells) containing neomycin-resistance gene in ratio 4:1:1 using Lipofectamine 2000 (Invitrogen) for DNA delivery as described by manufacturer. The following day, cells were trypsinized and plated in low density on 10-cm tissue culture dishes. Stable transformants were selected in the presence of 500-750 μg/ml geneticin (Invitrogen). Established cell lines were maintained in DMEM, 10% fetal bovine serum (FBS), 100 μg/ml Normocin (Invivogene), 2 μg/ml of puromycin, 500 μg/ml of geneticin, 15 mM HEPES, pH 7.2. Pathdetect Elk-1 system and human GFRα1-expressing plasmid (“Strat-Luc” cells) or empty vector (control cell line “NOStratis”) cells were selected and maintained in the DMEM, 10% FBS, 100 μg/ml Normocin (Invivogene), 2 μg/ml of puromycin, 500 μg/ml of G418, 2 μg/ml of blasticidin S, 15 mM HEPES, pH 7.2.
(§3) Cells were plated on 96-well plates (or 384-well) in cell density 20 000 (or 5 000 for 384-well format) cells per well in DMEM, 10% FBS, 100 μg/ml Normocin, 2 μg/ml puromycin, 500 μg/ml of G418, 15 mM HEPES, pH 7.2 one day before assay. The following day, the compounds were added to a final concentration of 1-50 μM. Structures of the compounds are shown in the description of FIG. 5, above. Cells were allowed to produce luciferase for 24 h, then lysed in 20 μl of 1×Cell culture lysis reagent (Promega) and freeze-thawed once to ensure complete lysis. Then 5 μl of the lysate was mixed (on ice) with 20 μl of luciferase assay substrate (Promega) in a well of black Isoplate (PerkinElmer). Luminescence was counted on MicroBeta 2 counter (PerkinElmer) twice. Data are presented as fold induction, where the corresponding concentration of DMSO was used as a reference.

[3] = test system: RET-expressing reporter cell line (RET alone); test: as above; assay type: cell-based; conditions: cells expressing RET alone; 1-50 μM, 24 h
Procedure: as §2, §3

[4] = test system: GFRα3/RET-expressing reporter cell line; test: as above; assay type: cell-based, human; conditions: GFRα3/RET cells; 1-50 μM, 24 h
Description: Full-length flag-tagged rat Gfrα1 cDNA (Leppänen et al., 2004) subcloned into in pcDNA3 (Invitrogen). Full-length human GFRα1 cDNA (Sidorova et al., unpublished) subcloned in pcDNA6 (Invitrogen). Full-length human GFRα3 cDNA (Wang et al., 2006). Full-length human RET (long isoform) (Runeberg-Roos et al., 2007) in pCR3.1 (Invitrogen). The MAPK activation detection system (Baloh et al., 2000) and PathDetect Elk-1 (Stratagene) both of which include two plasmids. First one constitutively expresses MAPK pathway specific fusion transactivator, that consists of activation domain of Elk-1 and DNA-binding domain of the yeast GAL4 protein (Gal4-Elk1). The other plasmid, Gal4-Luc, carries luciferase gene under the control of a synthetic promoter containing the yeast GAL4 binding sequences.
as §3

Compound | toxicity (cell viability) [1] | RET phosphorylation via GFRα1 (GFRα1/RET) | RET phosphorylation via GFRα3 (GFRα3/RET) | induction of luciferase expression [2] | induction of luciferase expression [3] | induction of luciferase expression [4]
CCN(CC)CCCC(C)Nc1cc(/C=C/c2ccccc2Cl)nc2cc(Cl)ccc12 (stereo not drawn) [BT10] | significant toxicity | – | – | – | – | –
COc1ccc(S(=O)(=O)N2CCC(Cc3ccccc3)CC2)cc1N1CCN(C(=O)c2cc(F)ccc2C(F)(F)F)CC1 [BT17] | – | likely the weaker GFRα1/RET agonists | likely the weaker GFRα3/RET agonists | in a dose-dependent manner induce luciferase expression | No significant effect | in a dose-dependent manner induce luciferase expression
